Tests used:
Sigma-1 binding sites = Sigma-1 binding sites (Cavia porcellus, UniProt Q60492); assay: σ1 binding assay, [^3H](+)-pentazocine in guinea pig brain membranes
Method: Test compounds were dissolved in ethanol (7 concentrations ranging from 1-1000 nM) then diluted in buffer for a total incubation volume of 0.5 mL. Assays were terminated by the addition of ice-cold 10 mM Tris HCl, pH 8.0 followed by rapid filtration through Whatman GF/B glass fiber filters (presoaked in 0.5% polyethylenimine) using a Brandel cell harvester (Gaithersburg, Md.). Filters were washed twice with 5 ML of ice cold buffer. Nonspecific binding was determined in the presence of 10 μM (+)-pentazocine. Liquid scintillation counting was carried out in EcoLite (+) (ICN Radiochemicals; Costa Mesa, Calif.) using a Beckman LS 6000IC spectrometer with a counting efficiency of 50%. Typical counts were 70 dpm/μg protein for total binding, 6 dpm/μg protein for nonspecific binding, and 64 dpm/μg protein for specific binding.
(§1) The IC50 values at sigma sites were determined in triplicate from non-linear regression of binding data as analyzed by JMP (SAS Institute; Cary, N.C.), using 5-10 concentrations of each compound. Ki values were calculated using the Cheng-Prusoff equation and represent mean values ±SEM. All assays were done in triplicate unless otherwise noted.

Sigma-2 sites = biological target: T1, Sigma-2 sites (Rattus norvegicus, UniProt Q5U3Y7); assay: σ2 binding assay, [^3H]DTG in rat liver membranes in the presence of 100 nM (+)-pentazocine
T1 sequence (Q5U3Y7 1-176): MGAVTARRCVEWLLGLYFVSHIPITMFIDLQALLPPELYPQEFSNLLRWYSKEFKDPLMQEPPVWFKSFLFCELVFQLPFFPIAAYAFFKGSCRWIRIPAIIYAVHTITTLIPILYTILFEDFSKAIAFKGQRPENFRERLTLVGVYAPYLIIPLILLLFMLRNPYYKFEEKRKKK
Method: Assays were terminated by the addition of ice-cold 10 mM Tris-HCl, pH 8.0 followed by rapid filtration through Whatman GF/B glass fiber filters (presoaked in 0.5% polyethylenimine) using a Brandel cell harvester (Gaithersburg, Md.). Filters were then washed twice with 5 mL of ice cold buffer Nonspecific binding was determined in the presence of 5 μM DTG. Liquid scintillation counting was carried out in EcoLite(+) (ICN Radiochemicals; Costa Mesa, Calif.) using a Beckman LS 6000IC spectrometer with a counting efficiency of 50%. […] Typical counts for guinea pig brain were 16 dpm/μg protein for total binding, 2 dpm/μg protein for nonspecific binding, and 14 dpm/μg protein for specific binding.
as §1

Chain of Sigma-1 binding sites (Q60492 whole entry): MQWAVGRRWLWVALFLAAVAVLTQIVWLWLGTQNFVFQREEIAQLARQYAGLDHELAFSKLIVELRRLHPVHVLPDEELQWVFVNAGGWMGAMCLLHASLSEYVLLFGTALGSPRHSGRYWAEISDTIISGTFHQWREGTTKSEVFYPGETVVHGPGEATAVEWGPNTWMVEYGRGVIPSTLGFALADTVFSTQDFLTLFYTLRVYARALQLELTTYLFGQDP

Row | SMILES | Ki (Sigma-1 binding sites) | Ki (Sigma-2 sites)
1 | COc1ccc(Cl)cc1NC(=O)O[C@H]1C[C@H]2CC[C@@H](C1)N2C [Compound 3, (3-endo)-8-Methyl-8-azabicyclo[3.2.1]octyl-3-N-(2′-methoxy-5′-chloro-phenyl)-carbamate] | > 1000 nM | 156 nM
2 | COc1ccc(OC)c(NC(=O)O[C@H]2C[C@H]3CCC[C@@H](C2)N3Cc2ccccc2)c1 [Compound 5, (3-endo)-9-Benzyl-9-azabicyclo[3.3.1]nonanyl-3-N-(2′, 5′-dimethoxyphenyl)-carbamate] | 329 nM | 28.2 nM
3 | O=C(Nc1ccc(Cl)c(Cl)c1)O[C@H]1C[C@H]2CCC[C@@H](C1)N2Cc1ccccc1 [Compound 4, (3-endo)-9-Benzyl-9-azabicyclo[3.3.1]nonanyl-3-N-(3′, 4′-dichlorophenyl)-carbamate] | 33.3 nM | 91.9 nM
4 | CN1[C@@H]2CC[C@H]1C[C@@H](OC(=O)Nc1ccc(Cl)c(Cl)c1)C2 [Compound 2, (3-endo)-8-Methyl-8-azabicyclo[3.2.1]octyl-3-N-(3′, 4′-dichlorophenyl)-carbamate] | > 1000 nM | 36.9 nM
5 | CN1[C@@H]2CCC[C@H]1C[C@@H](OC(=O)Nc1ccc(Cl)c(Cl)c1)C2 [Compound 8, (3-endo)-9-Methyl-9-azabicyclo[3.3.1]nonanyl-3-N-(3′, 4′-dichlorophenyl)-carbamate] | 595 nM | 50.3 nM
6 | COc1ccc(OC)c(NC(=O)O[C@H]2C[C@H]3CC[C@@H](C2)N3Cc2ccccc2)c1 [Compound 9, (3-endo)-8-Benzyl-8azabicyclo[3.2.1]octyl-3-N-(2′,5′-dimethoxyphenyl)-carbamate] | 72.4 nM | 22.1 nM
7 | O=C(Nc1ccc(Cl)c(Cl)c1)O[C@H]1C[C@H]2CC[C@@H](C1)N2Cc1ccccc1 [Compound 10, (3-endo)-8-Benzyl-8-azabicyclo[3.2.1]octyl-3-N(3′, 4′-dichlorophenyl)-carbamate] | 716 nM | 16.2 nM
8 | COc1ccc(Cl)cc1NC(=O)O[C@H]1C[C@H]2CCC[C@@H](C1)N2Cc1ccccc1 [Compound 7, (3-endo)-9-Benzyl-9-azabicyclo[3.3.1]nonanyl-3-N-(5′-chloro-2′-methoxyphenyl)carbamate] | > 1000 nM | 63.5 nM
9 | COc1cc(OC)c(NC(=O)O[C@H]2C[C@H]3CCC[C@@H](C2)N3Cc2ccccc2)cc1Cl [Compound 6, (3-endo)-9-Benzyl-9-azabicyclo[3.3.1]nonanyl-3-N-(5′-chloro-2′, 4′-dimethoxyphenyl)carbamate] | 189 nM | 22.9 nM

— patent US6676925B1, “Sigma-2 receptors as biomarkers of tumor cell proliferation” (priority 1996, dated 2004)
